Measured values as given in patent publication US7550613B2, “Compounds” (Pronova Biopharma Norge AS, priority 2005, dated 2009).
Where two headings read alike, the source gives them in different places.

Columns and labels:
PPARα receptor = molecular target: T1, PPARα receptor (Rattus norvegicus, UniProt P37230); conditions: rat liver cells (Pawar & Jump 2003); cited from earlier work
T1 construct: host or cells: rat liver cells
T1 sequence (P37230 1-468): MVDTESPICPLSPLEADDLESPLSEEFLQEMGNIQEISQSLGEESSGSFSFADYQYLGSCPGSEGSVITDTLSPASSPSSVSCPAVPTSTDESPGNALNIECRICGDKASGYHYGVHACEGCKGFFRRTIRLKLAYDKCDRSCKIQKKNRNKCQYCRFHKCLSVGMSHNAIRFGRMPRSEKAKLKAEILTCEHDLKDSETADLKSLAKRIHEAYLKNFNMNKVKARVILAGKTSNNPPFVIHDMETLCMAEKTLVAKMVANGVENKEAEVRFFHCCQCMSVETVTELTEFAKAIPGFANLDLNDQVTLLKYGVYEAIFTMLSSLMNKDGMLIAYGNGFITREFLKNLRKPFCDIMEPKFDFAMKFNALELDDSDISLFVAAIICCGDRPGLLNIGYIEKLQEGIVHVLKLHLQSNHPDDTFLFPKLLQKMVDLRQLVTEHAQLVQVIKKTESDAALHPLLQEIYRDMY

[1] = Body weight and food consumption during 2 weeks of diet intervention after 8 weeks of HF diet; assay type: in vivo, adipose prone mice of the C57BL/6J strain; conditions: FIG. 10; last 2 weeks of experimental diets after 8 weeks HF diet; PRBs 1.5% of fat content, rosiglitazone 100 mg/KG diet
Protocol: The animals (n=8 in each group) were fed high fat diet (fat constituting 60% of total calories, the same diet as used in Block 5) for 8 weeks. Thereafter they were given the PRBs in a dose of 1.5% of the fat content of the diet for another two weeks. The rosiglitazone group was given an amount of 100 mg/KG diet. The control groups continued with either only high fat diet or standard chow.

[2] = Vaagenes 1999; cited from earlier work
[3] = Effect of DHA derivatives in adipose prone mice during 4 months of dietary interventions (Example 5a); assay type: in vivo, male C57BL/6 mice; set-up: AUC: unit not given beside the values; conditions: for Insulin: plasma
Protocol: All experiments were performed on male C57BL/6 mice, either a substrain C57BL/N (supplier: Charles River, Germany, n=160, experiments A-C, see below), or a substrain C57BL/6J (supplier: the Jackson laboratory, Bar Harbor, Me., USA, n=32, experiment D). Total numbers of animals used were higher (n=170 and 36, respectively), because of culling. In the latter case, animals were bred for several generations (<20) at the Institute of Physiology. At the beginning of the treatment, animals were 14-week-old and their body weight range was 23.6-27.1 g. One week before the study start, animals were sorted according to their body weight and assigned to subgroups (n=8) of similar mean body weight. This method allowed for culling of about 5-10% of animals showing the lowest and highest body weight, respectively. The animals eliminated from the study at this stage were sacrificed by cervical dislocation. Complete health check of mice was performed by the supplier Charles River and at the start of study serological tests were performed by ANLAB (Prague, Czech Republic). In addition, regular health checks were performed in the animal house in 3-mo-intervals using sentinel mice and serological examinations (ANLAB). In all the tests, the animals were free of specific pathogens.
• (i) Chow diet (ssniff R/M-H from SSNIFF Spezialdieten Gmbh, Soest, Germany; see also http://ssniff.de) with protein, fat and carbohydrate forming 33, 9, and 58 energy %, respectively • (ii) High-fat diet prepared in the laboratory (cHF diet) with protein, fat and carbohydrate forming 15, 59, and 26 energy %, respectively, and well characterized fatty acid composition (with most of the lipids coming from corn oil; see Ruzickova 2004) • (iii) cHF diets in which 0.15, 0.5, and 1.5% of fat (specifically the corn oil constituent) was replaced by various PRB-compounds, namely PRB1, PRB2, PRB5, PRB7, and PRB8, or by DHA. All these compounds were in the form of ethyl esters, provided by Pronova Biocare a.s. in sealed containers. Chemical composition of the PRB-compounds was unknown to the laboratory performing the experiments (Institute of Physiology, Academy of Sciences Prague, Czech Republic).
The study was based on 4 individual experiments. In each of the experiments, different PRB-compounds (or DHA, respectively) admixed to cHF diet in three different concentrations (0.15, 0.5, and 1.5% of the fat content) were tested. In each experiment, a subgroup of plain cHF diet-fed mice was included and served as a control. Mice were caged in groups of 4 and fed standard chow diet until 3 mo of age, when animals (n=8-13) were randomly assigned to the different test diets. After 2 mo on this new diet (at 5 mo of age), animals were fasted overnight and in the morning, intraperitoneal Glucose Tolerance Test (GTT) was performed. Animals were sacrificed after 4 months on the experimental diets, at 7 mo of age, and the end-point analysis were performed.

PPARγ = molecular target: T2, PPARγ (Homo sapiens, UniProt P37231); assay: Affinity testing in transfected cells (release of luciferase); assay type: cell-based; conditions: FIG. 8; 10 μM of PRBs
T2 construct: For full length PPAR transfection studies, each well received 5 μg reporter construct; expressed in transfected cells; host or cells: COS-1 cells
T2 sequence (P37231 1-505): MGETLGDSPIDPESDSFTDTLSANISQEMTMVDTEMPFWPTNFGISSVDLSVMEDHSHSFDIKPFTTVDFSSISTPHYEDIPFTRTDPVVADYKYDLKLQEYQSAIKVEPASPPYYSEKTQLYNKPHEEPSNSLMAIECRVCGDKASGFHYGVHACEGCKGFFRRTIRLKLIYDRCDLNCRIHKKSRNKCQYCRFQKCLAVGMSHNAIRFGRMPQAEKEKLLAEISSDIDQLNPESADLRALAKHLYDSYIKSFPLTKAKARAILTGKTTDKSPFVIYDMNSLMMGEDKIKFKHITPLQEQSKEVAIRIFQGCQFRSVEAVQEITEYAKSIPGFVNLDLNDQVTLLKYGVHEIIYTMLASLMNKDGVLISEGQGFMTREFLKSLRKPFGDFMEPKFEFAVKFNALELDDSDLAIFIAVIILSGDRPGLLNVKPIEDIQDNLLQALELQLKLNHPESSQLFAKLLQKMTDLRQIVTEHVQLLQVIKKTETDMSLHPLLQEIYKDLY
Protocol: Release of luciferase is correlated to transcription of genes. Binding of a ligand to a nuclear receptor such as PPARγ induces transcription of the respective gene thereby releasing luciferase. This technique therefore provides a measure of ligand affinity to the receptor as well as activation of the responsible gene.
Transient transfection of COS-1 cells was performed in 6-well plates as described by Graham and van der Eb (Graham). For full length PPAR transfection studies, each well received 5 μg reporter construct, 2.5 μg pSV-β-galactosidase as an internal control, 0.4 μg pSG5-PPARγ2. The cells were harvested after 72 h, and the luciferase activity was measured according to the protocol (Promega). The luciferase activity was normalised against β-galactosidase activity. The adipocytes were transfected at D11 of differentiation using 16 μl LipofectaminPlus reagent, 4 μl Lipofectamine (Life Technologies Inc.), 0.2 μg pSG5-PPARγ, and 100 ng pTK Renilla luciferase as control of transfection afficiency. […] The luciferase activities were measured as recommended by the manufacturer (Dual Luciferase assay, Promega). […]
Fatty acids (BRL or DHA) and PRBs (stock solutions) were solubilized to 0.1 M final concentration in DMSO. […] Luciferase activity was measured using a luminometer (TD-20/20 luminometer; Turner Designs, Sunnycvale, Calif.) and normalized against protein content.

PPARα = molecular target: T3, PPARα (Homo sapiens, UniProt Q07869); conditions: Larsen 2005; cited from earlier work
T3 sequence (Q07869 1-468): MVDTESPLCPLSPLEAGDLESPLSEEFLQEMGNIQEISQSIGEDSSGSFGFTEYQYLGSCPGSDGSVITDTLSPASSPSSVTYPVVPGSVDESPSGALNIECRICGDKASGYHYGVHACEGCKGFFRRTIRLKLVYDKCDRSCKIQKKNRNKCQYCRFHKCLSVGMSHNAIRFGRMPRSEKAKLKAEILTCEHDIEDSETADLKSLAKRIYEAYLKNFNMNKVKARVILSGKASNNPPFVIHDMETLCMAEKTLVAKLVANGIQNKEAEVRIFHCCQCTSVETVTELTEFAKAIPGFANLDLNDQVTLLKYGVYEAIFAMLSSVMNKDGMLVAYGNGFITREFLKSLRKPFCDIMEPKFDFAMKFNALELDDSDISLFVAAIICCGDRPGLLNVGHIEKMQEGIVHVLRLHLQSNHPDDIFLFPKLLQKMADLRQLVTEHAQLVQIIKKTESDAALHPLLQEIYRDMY

platelet aggregation [4] = conditions: in vivo (Willumsen 1998); cited from earlier work
platelet aggregation [5] = conditions: in vitro (Larsen 1998); cited from earlier work
[6] = Larsen 1998; cited from earlier work

CC/C=C\C/C=C\C/C=C\C/C=C\C/C=C\C/C=C\CCC(=O)O [DHA, (all-Z)-4,7,10,13,16,19-docosahexaenoic acid]
binding capacity to the PPARα receptor (PPARα receptor): highest binding capacity
change of body weight [1]: completely stopped the weight gain and even led to reduction of body weight

CC/C=C\C/C=C\C/C=C\C/C=C\C/C=C\CCCC(=O)OCC [EPA EE]
plasma free fatty acid [2]: had no effect

CC/C=C\C/C=C\C/C=C\C/C=C\C/C=C\CCCC(=O)O [EPA, (all-Z)-5,8,11,14,17-eicosapentaenoic acid]
binding capacity to the PPARα receptor (PPARα receptor): highest binding capacity

CC/C=C\C/C=C\C/C=C\C/C=C\C/C=C\C/C=C\CC(C)C(=O)OCC (stereo not drawn) [PRB-1, α-methyl docosahexaenoic acid ethyl ester]
Body wt. gain ([3]; 4 months, 0.15% concentration): 22.9 ± 1.1 grams
AUCglucose ([3]; intraperitoneal glucose tolerance test, 1.5% concentration): 913 ± 68 mM × 180 min
Insulin ([3]; 4 months, 0.15% concentration): 3.50 ± 0.29 ng/mL
Insulin ([3]; 4 months, 1.5% concentration): 2.73 ± 0.33 ng/mL

CC/C=C\C/C=C\C/C=C\C/C=C\C/C=C\C/C=C\CC(SC)C(=O)OCC (stereo not drawn) [PRB-6, α-tiomethyl docosahexaenoic acid ethyl ester]
release of luciferase from transfected cells (PPARγ): significantly higher release of luciferase

CC/C=C\C/C=C\C/C=C\C/C=C\C/C=C\C/C=C\CC(CC)(CC)C(=O)OCC [PRB-8, α,α di-ethyl docosahexaenoic acid ethyl ester]
body weight (BW) ([3]; 2 months intervention, 1.5%, controls 29.6±0.9): 28.0±0.7 grams
AUC ([3]; 2 months intervention, 1.5%, controls 1074±91): 1031±104

CC/C=C\C/C=C\C/C=C\C/C=C\C/C=C\CCC(CC)C(=O)O (stereo not drawn) [α-ethyl EPA]
activation of the nuclear receptor PPARα (PPARα): equal strength as α-methyl EPA

CC/C=C\C/C=C\C/C=C\C/C=C\C/C=C\CCC(C)C(=O)O (stereo not drawn) [α-methyl EPA]
inhibition of platelet aggregation (platelet aggregation [4]): stronger inhibitor of platelet aggregation than EPA
inhibition of platelet aggregation (platelet aggregation [5]): stronger inhibitor of platelet aggregation than EPA
incorporation into phospholipids and triglycerids [6]: is incorporated into phospholipids and triglycerids

CC/C=C\C/C=C\C/C=C\C/C=C\C/C=C\CC(C)CC(=O)O (stereo not drawn) [β-methyl EPA]
incorporation into phospholipids and triglycerids [6]: is incorporated into phospholipids and triglycerids
